This is an account of results in patent publication US20260317314A1, “NITROGEN-CONTAINING HETEROCYCLIC COMPOUND AND USE THEREOF” (JIANGSU DEYUAN PHARMACEUTICAL CO.,LTD., priority 2023, published 2026).

Data set [1] in a line: Plasma protein binding rate test, human (equilibrium dialysis). It is filed as in vitro ADME. To be noted: 37° C. The text has this:
The sample was thoroughly mixed.
On the technique in general: In equilibrium dialysis only unbound substance equilibrates across the membrane.

A further data set has as its target T1, CYP1A2 (Homo sapiens, UniProt P05177).
T1 construct: Mixed human liver microsomes (HLM) were purchased from Corning Inc; tissue Corning Inc; host or cells: mixed human liver microsomes (HLM)
T1 sequence (P05177 1-516): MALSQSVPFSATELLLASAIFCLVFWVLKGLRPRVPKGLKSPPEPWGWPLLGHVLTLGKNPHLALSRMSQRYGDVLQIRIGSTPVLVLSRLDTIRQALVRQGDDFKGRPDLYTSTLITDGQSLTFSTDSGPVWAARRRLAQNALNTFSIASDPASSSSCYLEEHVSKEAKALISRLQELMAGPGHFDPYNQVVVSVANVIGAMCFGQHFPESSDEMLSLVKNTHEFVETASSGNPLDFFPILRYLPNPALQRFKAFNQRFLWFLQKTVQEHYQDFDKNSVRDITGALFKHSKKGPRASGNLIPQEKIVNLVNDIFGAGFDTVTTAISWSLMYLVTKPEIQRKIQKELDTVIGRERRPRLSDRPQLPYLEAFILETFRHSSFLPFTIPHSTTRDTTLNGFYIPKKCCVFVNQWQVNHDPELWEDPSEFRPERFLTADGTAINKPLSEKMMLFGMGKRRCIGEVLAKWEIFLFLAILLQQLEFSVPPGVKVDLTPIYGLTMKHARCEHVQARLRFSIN
Nature of the data set: Human liver microsome CYP inhibition assay, CYP1A2. The class given is in vitro ADME. To be noted: role: inhibitor; human liver microsomes, probe substrate; read-out: CYP1A2 half maximal inhibitory concentration IC50. The method, then:
(§1) Experimental objective: To evaluate the inhibitory activity of the test substance on human liver microsomal cytochrome P450 isoenzymes (CYP1A2, CYP2C9, CYP2C19, CYP2D6, CYP3A4) using a 5-in-1 probe substrate for CYP isoenzymes.
(§2) Mixed human liver microsomes (HLM) were purchased from Corning Inc. (Steuben, New York, USA) and stored at temperatures below −70° C. prior to use.
(§3) The working solution of the test substance, which had been diluted to a series of concentrations, was added to an incubation system containing human liver microsomes, probe substrates, and auxiliary factors of the circulatory system. A control containing solvent but no test substance served as an enzyme activity control (100%). The concentration of metabolites produced from probe substrates in the samples was determined using Liquid Chromatography-Tandem Mass Spectrometry (LC-MS/MS) method. Non-linear regression analysis of the average percentage activity of the test substance against its concentration was conducted using SigmaPlot (V.11). The IC50 values were calculated using a three-parameter or four-parameter inverse log equation.
Background: Microsomes from liver hold many membrane-bound enzymes, among them those of drug oxidation.

A further data set deals with T2, CYP2C9 (Homo sapiens, UniProt P11712).
T2 construct: Mixed human liver microsomes (HLM) were purchased from Corning Inc; tissue Corning Inc; host or cells: mixed human liver microsomes (HLM)
Nature of the data set: Human liver microsome CYP inhibition assay, CYP2C9. The class given is in vitro ADME. To be noted: role: inhibitor; human liver microsomes, probe substrate; read-out: CYP2C9 half maximal inhibitory concentration IC50. The protocol: as §1, §2, §3

Data set [2] in a line: In vivo pharmacokinetics study in rats. More on the design: species or system SD rat. To be noted: rat, plasma, male SD rats, oral 2 mg/kg.
For a further data set, the target named is T3, human CYP11B2 (Homo sapiens, UniProt P19099).
T3 construct: expressed in transfected cells; host or cells: human renal leiomyoma G402 cell line (monoclonal cells overexpressing human CYP11B2)
T3 sequence (P19099 25-503): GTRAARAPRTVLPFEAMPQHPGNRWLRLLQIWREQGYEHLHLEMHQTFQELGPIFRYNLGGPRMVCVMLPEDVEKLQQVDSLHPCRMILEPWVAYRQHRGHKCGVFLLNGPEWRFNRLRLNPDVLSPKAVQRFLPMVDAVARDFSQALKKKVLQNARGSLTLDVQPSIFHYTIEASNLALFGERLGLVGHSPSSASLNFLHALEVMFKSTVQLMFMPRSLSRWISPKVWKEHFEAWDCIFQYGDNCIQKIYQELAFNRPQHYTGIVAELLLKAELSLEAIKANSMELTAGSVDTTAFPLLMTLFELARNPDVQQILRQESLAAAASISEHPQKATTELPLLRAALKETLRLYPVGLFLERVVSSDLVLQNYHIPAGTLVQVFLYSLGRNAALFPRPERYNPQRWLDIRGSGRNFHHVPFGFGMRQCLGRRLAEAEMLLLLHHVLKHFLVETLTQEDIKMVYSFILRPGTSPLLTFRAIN
As to the kind of experiment: In vitro activity assay of monoclonal cells overexpressing human CYP11B2. The class given is cell-based. The settings on record: G402 cells overexpressing human CYP11B2; substrate 11-deoxycorticosterone; 16 hours; aldosterone by LCMS/MS. The protocol: The human renal leiomyoma G402 cell line overexpressing human CYP11B2 was selected to serve as a compound activity screening system.
• 2) Compound details: The test compound was prepared as a 10 μM working concentration using DMSO.
Day 1: Cells were digested, and human renal leiomyoma G402 cells overexpressing human CYP11B2 were resuspended to 1×10^5 cells/mL, with 100 μL seeded into a 96-well plate.
Day 2: The medium was replaced with DMEM/F12 containing 2.5% charcoal-stripped fetal bovine serum; test compounds were added: 5 μL of test compound was added to the cell culture medium to achieve final concentrations of 10000, 2500, 625, 156.25, 39.06, 9.77, 2.44, 0.61, 0.15, and 0 nM (with a DMSO content of 0.1%).
After one hour, the substrate was added: 30 mM 11-deoxycorticosterone was diluted 1500-fold with culture medium, and 5 μL was dispensed per well to achieve a final concentration of […], followed by incubation for 16 hours.
Day 3: The cell supernatant was collected and added to 200 μL of a methanol solution containing internal standards (internal standards: 35 ng/mL ketoprofen or 7.5 ng/mL carbamazepine or 5 ng/mL diphenhydramine or 10 ng/mL tolbutamide). The mixture was vortexed and centrifuged (4000×g, 4° C., 5 minutes). Then, 100 μL of the supernatant was taken and mixed with 100 μL of pure water. The mixture was centrifuged (4000 g, 4° C., 15 min), and the supernatant was analyzed by ESI-LCMS/MS. • 4) Data analysis:
Ratio=Aldosterone peak area/Internal standard peak area
Control activity %=(Ratio test compound/Ratio DMSO)×100%
“Ratio test compound” represents the Ratio values at different concentrations of the test compound.
“Ratio DMSO” represents the Ratio value without the addition of the test compound. • X=Log (compound concentration) • Y=Control activity %
The IC50 of the test compound was determined by fitting to a nonlinear regression equation using XLfit 5.5.0.

For another data set, the target named is T4, CYP2D6 (Homo sapiens, UniProt P10635).
T4 construct: Mixed human liver microsomes (HLM) were purchased from Corning Inc; tissue Corning Inc; host or cells: mixed human liver microsomes (HLM)
As to the kind of experiment: Human liver microsome CYP inhibition assay, CYP2D6. To be noted: role: inhibitor; human liver microsomes, probe substrate; read-out: CYP2D6 half maximal inhibitory concentration IC50. The class given is in vitro ADME. The protocol: as §1, §2, §3

T2 sequence (P11712 whole entry): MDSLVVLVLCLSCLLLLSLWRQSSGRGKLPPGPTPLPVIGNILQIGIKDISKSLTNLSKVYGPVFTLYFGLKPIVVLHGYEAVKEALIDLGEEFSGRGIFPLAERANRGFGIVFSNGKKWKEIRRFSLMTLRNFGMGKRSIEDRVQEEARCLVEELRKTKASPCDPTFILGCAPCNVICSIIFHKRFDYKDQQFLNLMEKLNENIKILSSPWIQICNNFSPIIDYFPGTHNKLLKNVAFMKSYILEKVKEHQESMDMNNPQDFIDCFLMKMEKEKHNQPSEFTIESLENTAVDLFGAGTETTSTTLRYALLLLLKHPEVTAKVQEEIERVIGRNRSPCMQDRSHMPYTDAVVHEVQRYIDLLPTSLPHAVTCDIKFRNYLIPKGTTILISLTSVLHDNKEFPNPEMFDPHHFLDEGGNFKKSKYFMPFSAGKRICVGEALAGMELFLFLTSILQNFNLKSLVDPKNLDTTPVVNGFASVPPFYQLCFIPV
T4 sequence (P10635 whole entry): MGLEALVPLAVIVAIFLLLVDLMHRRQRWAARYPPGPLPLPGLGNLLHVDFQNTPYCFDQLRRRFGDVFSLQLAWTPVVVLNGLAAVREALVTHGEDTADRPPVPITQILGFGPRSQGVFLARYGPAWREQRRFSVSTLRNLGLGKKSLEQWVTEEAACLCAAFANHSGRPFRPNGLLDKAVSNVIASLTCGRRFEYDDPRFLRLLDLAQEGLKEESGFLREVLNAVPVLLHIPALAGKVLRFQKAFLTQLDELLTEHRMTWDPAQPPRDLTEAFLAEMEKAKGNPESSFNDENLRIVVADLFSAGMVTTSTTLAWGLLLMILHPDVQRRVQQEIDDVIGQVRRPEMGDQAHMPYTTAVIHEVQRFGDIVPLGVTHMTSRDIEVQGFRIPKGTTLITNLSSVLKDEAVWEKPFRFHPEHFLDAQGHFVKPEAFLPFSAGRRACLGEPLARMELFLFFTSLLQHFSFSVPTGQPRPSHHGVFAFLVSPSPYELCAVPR

As a reminder, the fraction unbound is free concentration divided by total concentration. A low value points to extensive binding. As a reminder, the half-life is the time in which the quantity being followed falls by half. Higher therefore signals slow loss. The Cmax is the peak of the concentration-time curve. The molecule `CCC(=O)N[C@H]1CCOc2c(-c3ccc4c(c3)CCC(=O)N4C)cncc21` (single isomer, unassigned) [Compound 037] showed a fraction unbound at 4 h in data set [1] of 0.354. Further, the IC50 on CYP1A2 is greater than 50 µM; at CYP2C9 it was greater than 50 µM; at human CYP11B2, 0.0142 µM; at CYP2D6, greater than 50 µM. Further, in data set [2], the bioavailability stood at 157%. In data set [2], this molecule had a half-life of 2.36 h. Also, in data set [2], the highest concentration (Cmax) is 8.29 µM. For the same molecule, the AUC(0-t) at 24 h in data set [2] (read-out: AUC0-24 h) came to 49.9 µM·h.
